Measured values as given in ChEMBL document CHEMBL4715893, “Inhibitory effects of sesquiterpene lactones from the Indonesian marine sponge Lamellodysidea cf. herbacea on bone morphogenetic protein-induced osteoblastic differentiation” (Bioorg Med Chem Lett, 2021).

Legend:
[1] = Inhibition of BMP-induced mouse C2C12 cells osteoblastic differentiation assessed as reduction in alkaline phosphatase activity; assay type: functional, cell-based
[2] = tested on: C2C12; assay: Cytotoxicity against mouse C2C12 cells assessed as reduction in cell viability by MTT assay; assay type: cell-based

| SMILES | IC50 [1] | IC50 [2] |
| --- | --- | --- |
| C=C1C[C@@H]2C[C@@](C)(CCC3=CC(=O)O[C@@]32OC)[C@H]1C | 51 µM | > 76 µM |
| COC1C=C(CC[C@]2(C)C(C)=CCC[C@H]2C)C(=O)O1 (stereo partly specified) | 20 µM | > 38 µM |
| CC1=CCC[C@@H](C)[C@]1(C)CCC1=CC(=O)OC1O (stereo partly specified) | 4.8 µM | > 40 µM |
